Consider 1 compound from patent US10800801B2, “Crystalline platinum-based compounds” (AKAMARA THERAPEUTICS, INC., priority 2016, dated 2020).

The nature of the data set: physchem. In kind it is physicochemical. As to conditions: water, Approximate Solubility. Here is the method: Despite this, the screen offered a list of suitable solvents/solvent mixtures and anti-solvents to be used for the crystallization experiments. Using information obtained from the initial investigation into the solubility of IO-125, a series of bench scale crystallization experiments were carried out in order to provide examples of solution-based crystallization method that yield crystalline IO-125. Within this investigation, a number of techniques were designed to find suitable crystallization conditions including: using controlled linear cooling of IO-125 in different solvents, anti-solvent additions, evaporations and seeding. […] A significant mass loss was then observed in thermogravimetric trace from approx. 270° C., and was coupled with a large endothermic event with onset of 288.4° C. and peak at 297.2° C. in the differential thermogram. Again, this is likely associated with the decomposition of IO-125.
Initially a series of solvents and mixture of solvents were screened to select suitable solvents for the crystallization procedure.

One may read the solubility as the concentration that dissolves in the medium under given conditions. Compound `CC(C)CCC[C@@H](C)[C@H]1CCC2C3CC=C4C[C@@H](OCCN(CC(=O)[O-])CC(=O)[O][Pt+]5[NH][C@@H]6CCCC[C@H]6[NH]5)CC[C@]4(C)C3CC[C@@]21C` (stereo partly shown) [Comp 25] had a solubility of at most 10000 µg/mL.
